Source: patent US20220267260A1, “COMPOUNDS CONTAINING A SULFONIC GROUP AS KAT INHIBITORS” (Epizyme, Inc., priority 2016, published 2022)

Key:
[1] = biological target: T1, KAT6A (Homo sapiens, UniProt Q92794); test: KAT6A enzyme inhibition assay (SAMDI mass spectrometry); format: biochemical; details: His-TEV-KAT6A 501-784 enzyme construct
T1 construct: His-TEV tag (N, cleaved yes); made in house

[2] = biological target: T2, KAT5 (Homo sapiens, UniProt Q92993); test: KAT5 enzyme inhibition assay (SAMDI mass spectrometry); format: biochemical; details: His-TEV-FL KAT5-Flag enzyme construct
T2 construct: His-TEV tag (N, cleaved yes); made in house
T2 sequence (Q92993 with tags, fused parts or gaps): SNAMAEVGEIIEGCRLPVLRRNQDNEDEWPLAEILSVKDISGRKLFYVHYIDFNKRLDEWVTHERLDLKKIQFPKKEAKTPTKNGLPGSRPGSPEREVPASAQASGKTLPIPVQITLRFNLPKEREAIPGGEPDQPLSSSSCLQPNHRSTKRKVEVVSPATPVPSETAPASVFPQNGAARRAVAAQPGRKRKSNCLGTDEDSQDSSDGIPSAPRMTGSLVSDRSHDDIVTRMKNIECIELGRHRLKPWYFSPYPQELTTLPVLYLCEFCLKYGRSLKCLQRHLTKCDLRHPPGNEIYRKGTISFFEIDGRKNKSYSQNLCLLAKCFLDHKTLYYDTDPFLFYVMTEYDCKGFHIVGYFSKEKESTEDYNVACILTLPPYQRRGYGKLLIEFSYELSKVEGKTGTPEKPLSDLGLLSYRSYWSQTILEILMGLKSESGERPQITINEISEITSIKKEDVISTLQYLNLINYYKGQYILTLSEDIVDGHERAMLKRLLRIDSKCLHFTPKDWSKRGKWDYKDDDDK

T1 sequence (Q92794 with tags, fused parts or gaps): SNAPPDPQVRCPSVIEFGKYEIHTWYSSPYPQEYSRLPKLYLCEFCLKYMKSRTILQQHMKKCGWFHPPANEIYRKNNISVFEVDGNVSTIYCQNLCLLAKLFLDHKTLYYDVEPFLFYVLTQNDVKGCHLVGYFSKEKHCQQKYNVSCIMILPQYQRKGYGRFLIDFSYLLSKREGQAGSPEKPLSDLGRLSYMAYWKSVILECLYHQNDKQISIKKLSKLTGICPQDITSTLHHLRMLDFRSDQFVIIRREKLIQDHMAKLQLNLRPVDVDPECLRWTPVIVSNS

| SMILES | IC50 [1] [µM] | IC50 [2] [µM] |
| --- | --- | --- |
| Cc1cc(-c2cccc(OCCN(C)C)c2)cc(C(=O)NNS(=O)(=O)C2CCCCC2)c1F [Compound I-403] | > 100 | > 100 |
| O=C(NNS(=O)(=O)c1ccccc1)N1CCCCC1 [Compound I-254] | > 100 | > 100 |
| Cc1cc(-c2ccccc2)cc(C(=O)NNS(=O)(=O)Cc2ccc(F)cc2)c1F [Compound I-84] | ≤ 10 | ≤ 10 |
| Cc1c(-c2ccccc2)ccc(F)c1C(=O)NNS(=O)(=O)c1cccc(Cl)c1 [Compound I-128] | 10 to 50 | 50 to 100 |
| CNCCC(=O)N1CCCC(CS(=O)(=O)NNC(=O)c2cc(-c3cccc(F)c3)cc(C)c2F)C1 (stereo not drawn) [Compound I-328] | 10 to 50 | 10 to 50 |
| O=C(NNS(=O)(=O)c1ccccc1)c1cnn(-c2ccccc2)c1 [Compound I-197] | > 100 | > 100 |
| Cc1cc(-c2cccc(F)c2)cc(C(=O)NNS(=O)(=O)CC2CCCN(C(=O)OC(C)(C)C)C2)c1F (stereo not drawn) [Compound I-285] | ≤ 10 | ≤ 10 |
| Cc1cc(-c2ccccc2)cc(C(=O)NNS(=O)(=O)CC2CCCN(C)C2)c1F (stereo not drawn) [Compound I-337] | 10 to 50 | 10 to 50 |
| O=S(=O)(Nc1ncc(-c2ccccc2F)[nH]1)c1ccccc1 [Compound I-65] | > 100 | > 100 |
| O=C(NNS(=O)(=O)c1ccccc1)c1ccccc1F [Compound I-165] | 10 to 50 | > 100 |
| O=C(NNS(=O)(=O)c1ccccc1)c1ccccn1 [Compound I-194] | > 100 | > 100 |
| CNC(=O)Cn1nc(C)cc1C(=O)NNS(=O)(=O)C1CCCCC1 [Compound I-500] | > 100 | > 100 |
| O=C(NNS(=O)(=O)C1CCCCC1)c1cc(-c2ccc(O)cc2)cc(Cl)c1F [Compound I-460] | 10 to 50 | ≤ 10 |
| Cc1cc(-c2ccccc2)cc(C(=O)NNS(=O)(=O)c2ccc(CO)cc2)c1F [Compound I-147] | ≤ 10 | 10 to 50 |
| Cc1cccc(-c2cc(Cl)c(F)c(C(=O)NNS(=O)(=O)CC3CCCN(C(=O)C4CCC4)C3)c2)c1 (stereo not drawn) [Compound I-512] | > 100 | ≤ 10 |
| CCc1cc(F)cc(-c2cc(Cl)c(F)c(C(=O)NNS(=O)(=O)C3CCCCC3)c2)c1 [Compound I-498] | 10 to 50 | 10 to 50 |
| Cc1cc(-c2ccccc2)cc(C(=O)Nc2cn[nH]c2)c1F [Compound I-213] | > 100 | > 100 |

| SMILES | IC50 [1] [µM] | IC50 [2] [µM] |
| --- | --- | --- |
| O=C(NNS(=O)(=O)c1ccccc1)c1cccc(-c2ccccc2)c1F [Compound I-234] | ≤ 10 | > 100 |
| Cc1cc(-c2ccccc2)cc(C(=O)NNS(=O)(=O)CC2CCCN(C(=O)C(C)C)C2)c1F (stereo not drawn) [Compound I-369] | ≤ 10 | ≤ 10 |
| O=C(NNS(=O)(=O)C1CCCCC1)c1nc(-c2ccccc2)ccc1F [Compound I-332] | > 100 | > 100 |
| Cc1cc(-c2ccccc2)cc(C(=O)NNS(=O)(=O)C(C)C2CCCNC2)c1F (stereo not drawn) [Compound I-314] | > 100 | > 100 |
| O=C(NNS(=O)(=O)C1CCOCC1)c1cc(CO)cc(Cl)c1F [Compound I-465] | 50 to 100 | > 100 |
| CCc1cc(Cl)c(F)c(C(=O)NNS(=O)(=O)C2CCOCC2)c1 [Compound I-422] | > 100 | > 100 |
| COCCN1CCCC(CS(=O)(=O)NNC(=O)c2cc(-c3ccccc3)cc(C)c2F)C1 (stereo not drawn) [Compound I-297] | ≤ 10 | 10 to 50 |
| COCCN1CCC(CS(=O)(=O)NNC(=O)c2cc(-c3ccccc3)cc(C)c2F)C1 (stereo not drawn) [Compound I-336] | 10 to 50 | 10 to 50 |
| Cc1c(C(=O)NNS(=O)(=O)C2CCCCC2)cccc1-c1ccccc1 [Compound I-363] | > 100 | > 100 |
| CNC(=O)c1ccc(S(=O)(=O)NNC(=O)c2cc(-c3ccccc3)cc(C)c2F)cc1 [Compound I-244] | ≤ 10 | 10 to 50 |
| O=C(NNS(=O)(=O)C1CCCCC1)c1c(Cl)ccc(-c2ccccc2)c1Cl [Compound I-275] | > 100 | > 100 |
| O=C(NNS(=O)(=O)CC1CCCNC1)c1cc(-c2ccccc2)cc(Cl)c1F (stereo not drawn) [Compound I-410] | 10 to 50 | 10 to 50 |
| CC(=O)N1CCCC(CS(=O)(=O)NNC(=O)c2cc(-c3ccccc3)cc(C)c2F)C1 (stereo not drawn) [Compound I-322] | ≤ 10 | ≤ 10 |
| O=C(NNCc1ccccc1)c1ccccc1F [Compound I-169] | > 100 | > 100 |
| O=C(NNS(=O)(=O)c1ccccc1)c1c(F)ccc(-c2cn[nH]c2)c1F [Compound I-167] | 10 to 50 | 50 to 100 |
| Cc1cc(-c2cccc(F)c2)cc(C(=O)NNS(=O)(=O)CC2CCCN(C(=O)C(C)C)C2)c1F (stereo not drawn) [Compound I-292] | ≤ 10 | ≤ 10 |
